From ChEMBL document CHEMBL1201862, “PubChem BioAssay data set” (2004)
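48-hour exposure; five concentrations; linearly interpolated endpoints. GI50 is the concentration that inhibits growth by half.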 Active and inactive are the calls of the source. No stated cut-off is given here; in the data, active = GI50 up to about 1.1 µM and inactive = higher.

What was measured:
Test in all cases: NCI anticancer screen, dose series, 48 h
786-0 = tested on: 786-0
A498 = tested on: A498
A549 = tested on: A549
ACHN = tested on: ACHN
BT-549 = tested on: BT-549
CAKI-1 = tested on: CAKI-1
CCRF-CEM = tested on: CCRF-CEM
COLO 205 = tested on: COLO 205
DU-145 = tested on: DU-145
EKVX = tested on: EKVX
HCC 2998 = tested on: HCC 2998
HCT-116 = tested on: HCT-116
HCT-15 = tested on: HCT-15
HL-60 = tested on: HL-60
HOP-62 = tested on: HOP-62
HOP-92 = tested on: HOP-92
HT-29 = tested on: HT-29
Hs-578T = tested on: Hs-578T
IGROV-1 = tested on: IGROV-1
K562 = tested on: K562
KM12 = tested on: KM12
LOX IMVI = tested on: LOX IMVI
M14 = tested on: M14
MCF7 = tested on: MCF7
MDA-MB-231 = tested on: MDA-MB-231
MDA-MB-435 = tested on: MDA-MB-435
MDA-N = tested on: MDA-N
MOLT-4 = tested on: MOLT-4
Malme-3M = tested on: Malme-3M
NCI-H226 = tested on: NCI-H226
NCI-H23 = tested on: NCI-H23
NCI-H460 = tested on: NCI-H460
NCI-H522 = tested on: NCI-H522
NCI/ADR-RES = tested on: NCI/ADR-RES
OVCAR-3 = tested on: OVCAR-3
OVCAR-4 = tested on: OVCAR-4
OVCAR-5 = tested on: OVCAR-5
OVCAR-8 = tested on: OVCAR-8
PC-3 = tested on: PC-3
RPMI-8226 = tested on: RPMI-8226
RXF 393 = tested on: RXF 393
SF-268 = tested on: SF-268
SF-295 = tested on: SF-295
SF-539 = tested on: SF-539
SK-MEL-28 = tested on: SK-MEL-28
SK-MEL-2 = tested on: SK-MEL-2
SK-MEL-5 = tested on: SK-MEL-5
SK-OV-3 = tested on: SK-OV-3
SN12C = tested on: SN12C
SNB-19 = tested on: SNB-19
SR = tested on: SR
SW-620 = tested on: SW-620
T47D = tested on: T47D
TK-10 = tested on: TK-10
U-251 = tested on: U-251
UACC-257 = tested on: UACC-257
UACC-62 = tested on: UACC-62
UO-31 = tested on: UO-31
SNB-75 = tested on: SNB-75

CC1=NN(c2cccc(Cl)c2)C2(C1=C/C=C/c1ccccc1)C(Cl)C(=O)N2c1nc2ccccc2s1 (stereo not given)
GI50 (786-0): 11.7 µM (inactive)
GI50 (A498): 30.2 µM (inactive)
GI50 (A549): 43 µM (inactive)
GI50 (ACHN): 4.76 µM (inactive)
GI50 (BT-549): 32.1 µM (inactive)
GI50 (CAKI-1): 9.4 µM (inactive)
GI50 (CCRF-CEM): 8.05 µM (inactive)
GI50 (COLO 205): 62.7 µM (inactive)
GI50 (DU-145): 9.33 µM (inactive)
GI50 (EKVX): 40.2 µM (inactive)
GI50 (HCC 2998): 25.1 µM (inactive)
GI50 (HCT-116): 19.3 µM (inactive)
GI50 (HCT-15): 29.6 µM
GI50 (HL-60): 3.08 µM (inactive)
GI50 (HOP-62): 27.9 µM (inactive)
GI50 (HOP-92): 19.5 µM (inactive)
GI50 (HT-29): 25.7 µM (inactive)
GI50 (Hs-578T): 21 µM (inactive)
GI50 (IGROV-1): 27.5 µM (inactive)
GI50 (K562): 6.14 µM (inactive)
GI50 (KM12): 23.8 µM (inactive)
GI50 (LOX IMVI): 13.1 µM (inactive)
GI50 (M14): 23 µM (inactive)
GI50 (MCF7): 9.14 µM (inactive)
GI50 (MDA-MB-231): 22.3 µM (inactive)
GI50 (MDA-MB-435): 24.6 µM (inactive)
GI50 (MDA-N): 26.8 µM (inactive)
GI50 (MOLT-4): 1.53 µM (inactive)
GI50 (Malme-3M): 39 µM (inactive)
GI50 (NCI-H226): 27.4 µM (inactive)
GI50 (NCI-H23): 16.9 µM (inactive)
GI50 (NCI-H460): 5.42 µM (inactive)
GI50 (NCI-H522): 14.8 µM (inactive)
GI50 (NCI/ADR-RES): 40.5 µM (inactive)
GI50 (OVCAR-3): 24.7 µM (inactive)
GI50 (OVCAR-4): 35.7 µM (inactive)
GI50 (OVCAR-5): 34.1 µM (inactive)
GI50 (OVCAR-8): 17.9 µM (inactive)
GI50 (PC-3): 19.3 µM (inactive)
GI50 (RPMI-8226): 4.43 µM (inactive)
GI50 (RXF 393): 23.1 µM (inactive)
GI50 (SF-268): 7.74 µM (inactive)
GI50 (SF-295): 11 µM (inactive)
GI50 (SF-539): 19.2 µM (inactive)
GI50 (SK-MEL-28): 26.2 µM (inactive)
GI50 (SK-MEL-2): 18.7 µM (inactive)
GI50 (SK-MEL-5): 22.9 µM (inactive)
GI50 (SK-OV-3): 29 µM (inactive)
GI50 (SN12C): 34.6 µM (inactive)
GI50 (SNB-19): 60.8 µM (inactive)
GI50 (SR): 1.51 µM (inactive)
GI50 (SW-620): 18.9 µM (inactive)
GI50 (T47D): 15.8 µM (inactive)
GI50 (TK-10): 53 µM (inactive)
GI50 (U-251): 6.92 µM (inactive)
GI50 (UACC-257): 36.7 µM (inactive)
GI50 (UACC-62): 31.5 µM (inactive)
GI50 (UO-31): 21.4 µM (inactive)

Cc1ccc(/N=N/c2c(O)ccc3cc(S(=O)(=O)O)ccc23)c(C)c1
GI50 (786-0): > 100 µM (inactive)
GI50 (A498): > 100 µM (inactive)
GI50 (A549): > 100 µM (inactive)
GI50 (ACHN): > 100 µM (inactive)
GI50 (BT-549): > 100 µM (inactive)
GI50 (CAKI-1): > 100 µM (inactive)
GI50 (CCRF-CEM): > 100 µM (inactive)
GI50 (COLO 205): > 100 µM (inactive)
GI50 (DU-145): > 100 µM (inactive)
GI50 (EKVX): > 100 µM (inactive)
GI50 (HCC 2998): > 100 µM (inactive)
GI50 (HCT-116): > 100 µM (inactive)
GI50 (HCT-15): > 100 µM
GI50 (HL-60): 92.9 µM (inactive)
GI50 (HOP-62): > 100 µM (inactive)
GI50 (HOP-92): > 100 µM (inactive)
GI50 (HT-29): > 100 µM (inactive)
GI50 (Hs-578T): > 100 µM (inactive)
GI50 (IGROV-1): > 100 µM (inactive)
GI50 (K562): > 100 µM (inactive)
GI50 (KM12): > 100 µM (inactive)
GI50 (M14): > 100 µM (inactive)
GI50 (MCF7): > 100 µM (inactive)
GI50 (MDA-MB-231): > 100 µM (inactive)
GI50 (MDA-MB-435): > 100 µM (inactive)
GI50 (MDA-N): > 100 µM (inactive)
GI50 (MOLT-4): > 100 µM (inactive)
GI50 (Malme-3M): > 100 µM (inactive)
GI50 (NCI-H226): > 100 µM (inactive)
GI50 (NCI-H23): > 100 µM (inactive)
GI50 (NCI-H460): > 100 µM (inactive)
GI50 (NCI-H522): > 100 µM (inactive)
GI50 (NCI/ADR-RES): > 100 µM (inactive)
GI50 (OVCAR-3): > 100 µM (inactive)
GI50 (OVCAR-4): > 100 µM (inactive)
GI50 (OVCAR-5): > 100 µM (inactive)
GI50 (OVCAR-8): > 100 µM (inactive)
GI50 (PC-3): > 100 µM (inactive)
GI50 (RXF 393): > 100 µM (inactive)
GI50 (SF-268): > 100 µM (inactive)
GI50 (SF-295): > 100 µM (inactive)
GI50 (SF-539): > 100 µM (inactive)
GI50 (SK-MEL-28): > 100 µM (inactive)
GI50 (SK-MEL-2): > 100 µM (inactive)
GI50 (SK-MEL-5): > 100 µM (inactive)
GI50 (SK-OV-3): > 100 µM (inactive)
GI50 (SN12C): > 100 µM (inactive)
GI50 (SNB-19): > 100 µM (inactive)
GI50 (SNB-75): > 100 µM (inactive)
GI50 (SR): > 100 µM (inactive)
GI50 (SW-620): > 100 µM (inactive)
GI50 (T47D): > 100 µM (inactive)
GI50 (TK-10): > 100 µM (inactive)
GI50 (U-251): > 100 µM (inactive)
GI50 (UACC-257): > 100 µM (inactive)
GI50 (UACC-62): > 100 µM (inactive)
GI50 (UO-31): > 100 µM (inactive)
